Data on six compounds can be found in patent publication US6657052B1, “Biomolecular labeling” (University of Arkansas, priority 1997, dated 2003).

Data set [1] can be described thus: Hydrolysis of kinetically formed trialkylphosphate in the presence of water (1H NMR). It is filed as physicochemical.
From the text: (§1) 3.3 Kinetic favorability of phosphotriester formation over hydrolysis in the presence of water. The reaction of quinone methide 7 and two equivalents of dibenzylphosphoric acid in the presence of excess water (˜200 equivalents for a homogeneous solution) afforded only trialkylphosphate 8 as the product in the equilibrium by 1H NMR analysis. […] Trialkylphosphate 8 is the kinetic product. A similar amount of 8 is produced in the presence of a much higher concentration of water (3,000 equivalents forming a bilayer) at ambient temperature after 30 minutes. […] Hydrolysis to benzyl alcohol appears to be the thermodynamic product^39. Similar results of quinone methides reacting with amino acid derivatives under aqueous conditions have been reported by other researchers^43.
as §1, with “(3)” for “3.3”, “^1H” for “1H”, “product. […]” for “product^39. Similar results of quinone methides reacting with amino acid derivatives under aqueous conditions have been reported by other researchers^43.”

The conditions of data set [2]: cited from earlier work; for pKa: H2O, 25° C., Lange's Handbook of Chemistry.

As for `Cc1cc(COP(=O)(OCc2ccccc2)OCc2ccccc2)cc(C)c1O` [trialkylphosphate 8], the “hydrolysis to benzyl alcohol” value is reported as “complete conversion to benzyl alcohol” in data set [1] (3,000 equivalents water forming a bilayer, ambient temperature, after 18 hours) and “Minor amounts of the benzyl alcohol hydrolysis product” in data set [1] (excess water (~200 equivalents, homogeneous solution), 18 hours at ambient temperature).
For `N=C(N)Nc1ccccc1` [phenylguanidine], the “reported pKa values for various substituted guanidines” value in data set [2] is 10.8.
For `CNC(=N)N` [methylguanidine], in data set [2], the pKa was 14.1 and the “reported pKa values for various substituted guanidines” value is on record as 14.1.
Consider `N=C(N)N` [guanidine], for which, in data set [2], the pKa is 14.38.
`Nc1cccc(O)c1` [3-aminophenol]: the pKa in data set [2] is given as 9.83.
In the case of `CCN(C)CC` [Et2MeN], the pKa in data set [2] is 10.4.
